# Assay results taken from patent US4870207A, “Synthesis of arphamenine A” (Zaiden Hojin Biseibutsu Kagaku Kenkyu Kai, priority 1983, dated 1989).
# Where two headings read alike, the source gives them in different places.
# Legend:
# [1] = system: Delayed-Type Hypersensitivity (D.T.H.); assay: Delayed-Type Hypersensitivity (D.T.H.) technique, cell-mediated immunopotentiating activity; format: in vivo
# Text: Accordingly, they are useful as an immunopotentiating agent.
# aminopeptidase B = molecular target: T1, aminopeptidase B (Rattus norvegicus, UniProt O09175); assay: Aminopeptidase B-inhibitory activity; format: biochemical; details: modification of the method of Hoppusu
# T1 sequence (O09175 1-650): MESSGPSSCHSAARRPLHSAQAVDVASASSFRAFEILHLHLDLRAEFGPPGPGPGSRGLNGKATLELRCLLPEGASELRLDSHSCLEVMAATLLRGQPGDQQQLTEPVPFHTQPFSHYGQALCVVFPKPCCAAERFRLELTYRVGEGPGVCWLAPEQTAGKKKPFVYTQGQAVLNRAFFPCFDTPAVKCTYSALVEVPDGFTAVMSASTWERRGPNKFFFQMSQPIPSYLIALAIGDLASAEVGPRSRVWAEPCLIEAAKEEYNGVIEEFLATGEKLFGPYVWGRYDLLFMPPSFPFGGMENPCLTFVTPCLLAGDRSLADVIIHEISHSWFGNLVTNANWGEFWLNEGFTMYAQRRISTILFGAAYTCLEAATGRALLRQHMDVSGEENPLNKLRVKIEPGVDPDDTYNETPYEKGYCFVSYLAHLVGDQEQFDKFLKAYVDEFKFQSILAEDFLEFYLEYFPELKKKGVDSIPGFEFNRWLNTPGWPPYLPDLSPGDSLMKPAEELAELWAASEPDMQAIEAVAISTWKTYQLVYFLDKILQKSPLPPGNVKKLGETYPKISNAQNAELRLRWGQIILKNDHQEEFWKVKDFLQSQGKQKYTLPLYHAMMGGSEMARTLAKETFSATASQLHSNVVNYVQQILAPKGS
# Description: The aminopeptidase B-inhibitory activities (IC50) described above were determined by a modification of the method of Hoppusu disclosed in the specification of U.S. Pat. No. 4,595,698.
# [2] = background statement, see U.S. Pat. No. 4,595,698; cited from earlier work
# [3] = background statement, see U.S. Pat. No. 4,595,698; cited from earlier work; remark: listed apart in the source
Compound,cell-mediated immunopotentiating activity [1],IC50 (aminopeptidase B) [nM],cell-mediated immunopotentiating activity ([1]; listed as (Ia)),immunopotentiating activity [2],analgesic activity [3]
"N=C(N)NCCC[C@H](N)C(=O)C[C@H](Cc1ccccc1)C(=O)O [Substance (I""), epi-arphamenine A]",exhibit a cell-mediated immunopotentiating activity,–,–,–,–
"N=C(N)NCCC[C@H](N)C(=O)C[C@@H](Cc1ccccc1)C(=O)O [Substance (I'), arphamenine A]",–,21.8,exhibit a cell-mediated immunopotentiating activity,–,–
"N=C(N)NCCC[C@H](N)C(=O)C[C@@H](Cc1ccccc1)C(=O)O [naturally occuring arphamenine A, arphamenine A]",–,15.6,–,shows an immunopotentiating activity,an analgesic activity
